# Experimental data from patent US20130287807A1, “COMPOUNDS FOR TREATING SYMPTOMS ASSOCIATED WITH PARKINSON'S DISEASE” (priority 2008, published 2013).
# B1: p4692 (peptide)
# peptide: GTIFFRDC
# B2: p4806 (peptide)
# peptide: AGEIYFERC
# B3: p4415 (peptide)
# peptide: SGEIHFNC
# B4: p4414 (peptide)
# peptide: SGQIWFRC
# B5: p4754 (peptide)
# peptide: TSTEMWHC
# B6: p4404 (peptide)
# peptide: SGEYVFHC
# B7: p4700 (peptide)
# peptide: QLPLFVLC
# B8: p4713 (peptide)
# peptide: QPNLFYHC
# B9: p4807 (peptide)
# peptide: CGEIYFER
# B10: p4733 (peptide)
# peptide: TPLMFWHC
# B11: p4709 (peptide)
# peptide: EDWFFWHC
# B12: p4403 (peptide)
# peptide: SHTRLYFC
# B13: p4724 (peptide)
# peptide: QELKRYYC
# B14: p4413 (peptide)
# peptide: SGQLKFPC
# B15: p4392 (peptide)
# peptide: NWFPHPC
# B16: p4719 (peptide)
# peptide: HEPLFSHC
# B17: p4805 (peptide)
# peptide: SGEIYFERC
# B18: p4691 (peptide)
# peptide: KLPLFVMC
# B19: p4668 (peptide)
# peptide: GQIIFQSC
# B20: p4666 (peptide)
# peptide: GQIWFISC
# B21: p4682 (peptide)
# peptide: AIPLFVMC
# Columns and labels:
# [1] = tested on: monoclonal antibody MV-004; experiment: In vitro binding assay (ELISA), BSA-coupled peptides, parental antibody MV-004; parameters: species or system BalbC mice; conditions: Table 1B; peptide-BSA on plate, compared to original epitope
# Protocol: (§1) Peptides derived from Phage Display as well as variants thereof were coupled to BSA and bound to ELISA plates (1 μM; as indicated in the respective figures) and subsequently incubated with the monoclonal antibody that was used for the screening procedure to analyse binding capacity of identified peptides.
# Legend to Table 1B: the binding capacity is coded by the following binding code: 1:X describes the dilution factor of the parental AB.
# [2] = tested on: monoclonal antibody MV-004; experiment: In vitro inhibition assay (ELISA), MV-004 binding to original epitope; parameters: species or system BalbC mice; conditions: Table 2B; OD at 10 ug peptide compared to original peptide
# Protocol: (§2) Different amounts of peptides (concentrations ranging from 10 μg to 0.08 μg; serial dilutions; for MV-002: concentrations ranging from 5 μg to 0.03 μg; serial dilutions), derived from Phage Display were incubated with the monoclonal antibody that was used for the screening procedure. Peptides diminishing subsequent binding of the antibody to the original epitope coated on ELISA plates were considered as inhibiting in this assay.
# (§3) Legend to Table 2B: the inhibition capacity is coded by the following code: Weak inhibition means more peptide is required to lower AB binding than with the original epitope; strong inhibition means similar peptide amounts are required for mimotope and original epitope for lowering AB binding. Mimotopes are compared to the original peptide as standard. OD at 10 ug peptide used in the assay is used to calculate the competition capacity compared to original peptide.
# [3] = tested on: Aβ/truncated/modified forms; experiment: In vivo characterisation of mimotopes: detection of Aβ/truncated/modified forms; parameters: species or system C57/B16 mice; key: +: All peptides listed in table 4 mount specific immune reactions against full length and/or truncated and modified forms of Aβ or fragments thereof; conditions: Table 4, MV-002 derived mimotopes
# Protocol: Inhibiting as well as non-inhibiting peptides were coupled to KLH and injected into mice (wildtype C57/B16 mice; subcutaneous injection into the flank) together with an appropriate adjuvant (aluminium hydroxide). Animals were vaccinated 3-6 times in biweekly intervals and sera were taken biweekly as well. Titers to injected peptides, as well as to an irrelevant peptide were determined with every serum. Furthermore, titers against the recombinant human Aβ protein, and against original peptides were determined respectively. In general sera were analysed by reaction against peptides coupled to Bovine Serum Albumin (BSA) and recombinant full length proteins which were immobilised on ELISA plates. Titers were determined using anti mouse IgG specific antibodies. For detailed results see FIGS. 15, 16 and 17 respectively and FIGS. 23, 24 and 25 respectively.
# (§4) Female C57/b16 mice, 5-6 mice per group, were subcutaneously immunized with 30 μg peptide coupled to KLH. Control groups were administered original epitope-KLH conjugates respectively. As adjuvant alum was used (always 1 mg per mouse). […] The in vitro ELISA assay to determine the antibody titer was performed with sera of single mice after each vaccination in a two week interval (see FIGS. 15 and 16 respectively). The wells of the ELISA plate were coated with mimotope-BSA conjugate and an irrelevant peptide-BSA conjugate (negative control). The positive control was performed by reaction of the parental antibody with the respective mimotope-BSA conjugate. The detection was performed with anti-mouse IgG. Additionally, recombinant proteins were immobilised on ELISA plates and sera reacted accordingly. FIGS. 15 to 17 show representative examples for assays used to characterise mimotopes in vivo.
# as §4, with “FIGS. 25” for “FIGS. 15”, “and 26” for “and 16”, “respectively). Titers were calculated as OD max/2 in all figures shown.” for “respectively).”, “FIGS. 23, 24 and 25” for “FIGS. 15 to 17”
# [4] = tested on: monoclonal antibody MV-002; experiment: In vitro binding assay (ELISA), BSA-coupled peptides, parental antibody MV-002; parameters: species or system C57/B16 mice; conditions: Table 1 (MV-002); peptide-BSA on plate, compared to original epitope
# Protocol: as §1
# Legend to Table 1: the binding capacity is coded by the following binding code: 1:X describes the dilution factor of the parental AB. Ac- . . . indicates acetylated AA.
# [5] = tested on: monoclonal antibody MV-002; experiment: In vitro inhibition assay (ELISA), MV-002 binding to original epitope; parameters: species or system C57/B16 mice; conditions: Table 2 (MV-002); OD at 5 ug peptide compared to original peptide
# Protocol: as §2
# as §3, with “2:” for “2B:”, “5” for “10”
# [6] = target: monoclonal antibody MV-002; experiment: ELISA on peptide-BSA; code 1 = weak binding, OD halfmax 1:<40000
# [7] = target: monoclonal antibody MV-001; experiment: ELISA on peptide-BSA; code 1 = weak binding, OD halfmax 1:<4000
# [8] = target: monoclonal antibody MV-001; experiment: inhibition ELISA, competitor coated original epitope p4371; code 1 = weaker than original epitope
# [9] = target: monoclonal antibody MV-002; experiment: ELISA on peptide-BSA; code 2 = medium binding, OD halfmax 1:40000-320000
molecule,measurement,setting,value
ELWHRAC [p4786],Binding Capacity,[1],1 (weak binding :<24000)
same,Inhibition Capacity,[2],1 (Weaker than original epitope (OD of 10 ug peptide below 5 times of original peptide))
ELWHRAFC [p4665],Binding Capacity,[1],2 (medium binding :24-96000)
same,Inhibition Capacity,[2],2 (strong inhibition (as original epitope; OD of 10 ug peptide below 2 times of original peptide))
ELWHRYPC [p4420],Binding Capacity,[1],2 (medium binding :24-96000)
same,Inhibition Capacity,[2],1 (Weaker than original epitope (OD of 10 ug peptide below 5 times of original peptide))
ERWHEKC [p4790],Binding Capacity,[1],1 (weak binding :<24000)
same,Inhibition Capacity,[2],2 (strong inhibition (as original epitope; OD of 10 ug peptide below 2 times of original peptide))
ERWHEKHC [p4418],Binding Capacity,[1],3 (strong binding :>96000)
same,Inhibition Capacity,[2],2 (strong inhibition (as original epitope; OD of 10 ug peptide below 2 times of original peptide))
EVWHRGC [p4788],Binding Capacity,[1],1 (weak binding :<24000)
same,Inhibition Capacity,[2],1 (Weaker than original epitope (OD of 10 ug peptide below 5 times of original peptide))
EVWHRHC [p4789],Binding Capacity,[1],1 (weak binding :<24000)
same,Inhibition Capacity,[2],1 (Weaker than original epitope (OD of 10 ug peptide below 5 times of original peptide))
EVWHRHQC [p4417],Binding Capacity,[1],2 (medium binding :24-96000)
same,Inhibition Capacity,[2],1 (Weaker than original epitope (OD of 10 ug peptide below 5 times of original peptide))
EVWHRLQC [p4419],Binding Capacity,[1],3 (strong binding :>96000)
same,Inhibition Capacity,[2],2 (strong inhibition (as original epitope; OD of 10 ug peptide below 2 times of original peptide))
GEIKFDHC [p4698],Detection of Aβ/truncated/modified forms,[3],+
same,Binding Capacity,[4],3 (strong binding :>320000)
same,Inhibition Capacity,[5],"2 (strong inhibition (as original epitope; OD of peptide below 2, 3 times of original peptide))"
GEIQFGAC [p4699],Detection of Aβ/truncated/modified forms,[3],+
same,Binding Capacity,[4],3 (strong binding :>320000)
same,Inhibition Capacity,[5],"1 (Weaker than original epitope (OD of peptide below 4, 6 times of original peptide))"
GEIRFGSC [p4696],Detection of Aβ/truncated/modified forms,[3],+
same,Binding Capacity,[4],3 (strong binding :>320000)
GELWFPC [p4673],Detection of Aβ/truncated/modified forms,[3],+
same,Binding Capacity,[4],3 (strong binding :>320000)
same,Inhibition Capacity,[5],"1 (Weaker than original epitope (OD of peptide below 4, 6 times of original peptide))"
SGEIHFNC [p4415],Detection of Aβ/truncated/modified forms,[3],+
same,Binding Capacity,[4],1 (weak binding :<40000)
SGEYVFHC [p4404],Detection of Aβ/truncated/modified forms,[3],+
same,Binding Capacity,[4],1 (weak binding :<40000)
SGQIWFRC [p4414],Detection of Aβ/truncated/modified forms,[3],+
same,Binding Capacity,[4],1 (weak binding :<40000)
SGQLKFPC [p4413],Detection of Aβ/truncated/modified forms,[3],+
same,Binding Capacity,[4],1 (weak binding :<40000)
THQRLWFC [p4693],Detection of Aβ/truncated/modified forms,[3],+
same,Binding Capacity,[4],3 (strong binding :>320000)
B1,OD halfmax dilution factor of the parental antibody (1:X) (dilutionfactor(1:x)),[6],< 40000
B2,OD halfmax dilution factor of the parental antibody (1:X) (dilutionfactor(1:x)),[6],< 40000
B3,OD halfmax dilution factor of the parental antibody (1:X) (dilutionfactor(1:x)),[6],< 40000
B4,OD halfmax dilution factor of the parental antibody (1:X) (dilutionfactor(1:x)),[6],< 40000
B5,OD halfmax 1:X (dilution factor of the parental antibody at half-maximal OD) (dilutionfactor(1:x)),[7],< 4000
B6,OD halfmax dilution factor of the parental antibody (1:X) (dilutionfactor(1:x)),[6],< 40000
B7,OD halfmax dilution factor of the parental antibody (1:X) (dilutionfactor(1:x)),[6],< 40000
B8,OD halfmax 1:X (dilution factor of the parental antibody at half-maximal OD) (dilutionfactor(1:x)),[7],< 4000
B9,OD halfmax dilution factor of the parental antibody (1:X) (dilutionfactor(1:x)),[6],< 40000
B10,OD halfmax 1:X (dilution factor of the parental antibody at half-maximal OD) (dilutionfactor(1:x)),[7],< 4000
B11,OD halfmax 1:X (dilution factor of the parental antibody at half-maximal OD) (dilutionfactor(1:x)),[7],< 4000
B12,OD halfmax dilution factor of the parental antibody (1:X) (dilutionfactor(1:x)),[6],< 40000
B13,OD halfmax 1:X (dilution factor of the parental antibody at half-maximal OD) (dilutionfactor(1:x)),[7],< 4000
B14,OD halfmax dilution factor of the parental antibody (1:X) (dilutionfactor(1:x)),[6],< 40000
B15,OD at 10 ug peptide relative to OD of original peptide (inhibition ELISA),[8],2 to 3 fold
same,OD halfmax 1:X (dilution factor of the parental antibody at half-maximal OD) (dilutionfactor(1:x)),[7],< 4000
B16,OD halfmax 1:X (dilution factor of the parental antibody at half-maximal OD) (dilutionfactor(1:x)),[7],< 4000
B17,OD halfmax dilution factor of the parental antibody (1:X) (dilutionfactor(1:x)),[6],< 40000
B18,OD halfmax dilution factor of the parental antibody (1:X) (dilutionfactor(1:x)),[6],< 40000
B19,OD halfmax dilution factor of the parental antibody (1:X) (dilutionfactor(1:x)),[9],40000 to 320000
B20,OD halfmax dilution factor of the parental antibody (1:X) (dilutionfactor(1:x)),[6],< 40000
B21,OD halfmax dilution factor of the parental antibody (1:X) (dilutionfactor(1:x)),[6],< 40000
